Reference: patent publication US20110224231A1, “Novel Lactams as Beta Secretase Inhibitors” (Pfizer Inc., priority 2008, published 2011)
Structures can show the parent of a compound that is named as a salt.

target: T1, soluble human BACE (Homo sapiens, UniProt P56817); experiment: BACE activity Cell Free Assay (ELISA of cleaved synthetic APP substrate); type: biochemical; conditions: not given
T1 construct: cells secreting human recombinant soluble BACE; made in house; conditioned medium
Method: A synthetic APP substrate that can be cleaved by beta˜secretase and having N-terminal biotin is used to assay beta-secretase activity in the presence or absence of the inhibitory compounds. […] The substrate and test compounds are added to 384 well polypropylene plates. The reaction is initiated by the addition of soluble BACE enzyme to a final volume of 12.5 μL per well. The final assay conditions are: 0.001˜300 μM compound inhibitor, 0.05M sodium acetate (pH 4.5), 3 μM substrate, soluble human BACE, and 2% DMSO. Concentrated conditioned media from cells secreting human recombinant soluble BACE was titrated to provide a source of BACE enzyme. The cell media can be used as either a crude BACE prep or BACE can be purified using any number of techniques, including immobilized BACE inhibitor purification columns. The assay mixture is incubated for 1 hour at 37° C., and the reaction is quenched by the addition of an equal volume of 0.1M Tris, pH 8. Half of the quenched mix is incubated on clear streptavidin coated 384 well polystyrene plates for 1 hour. An ELISA is then performed using an in˜house antibody that specifically recognizes the new C˜terminus created after cleavage by BACE. […] (These polyclonal antibodies were raised in rabbits by immunizing with antigen comprised of six amino acid residues present at the carboxy terminus of the wild-type soluble APPbeta sequence (NH2-ISEVKM-COOH) or seven amino acid residues present at the carboxy terminus of the Swedish mutation at the beta cleavage site (NH2-EISEVNL˜COOH) conjugated to keyhole limpet hemacyanin by methods known to those skilled in the art.) A secondary anti˜species Horseradish Peroxidase (HRP) conjugated antibody is then utilized. The readout, following assay development with TMB substrate and quenching with 0.09M sulfuric acid, is absorbance at 450 nm.

T1 sequence (P56817 46-457 limits assumed): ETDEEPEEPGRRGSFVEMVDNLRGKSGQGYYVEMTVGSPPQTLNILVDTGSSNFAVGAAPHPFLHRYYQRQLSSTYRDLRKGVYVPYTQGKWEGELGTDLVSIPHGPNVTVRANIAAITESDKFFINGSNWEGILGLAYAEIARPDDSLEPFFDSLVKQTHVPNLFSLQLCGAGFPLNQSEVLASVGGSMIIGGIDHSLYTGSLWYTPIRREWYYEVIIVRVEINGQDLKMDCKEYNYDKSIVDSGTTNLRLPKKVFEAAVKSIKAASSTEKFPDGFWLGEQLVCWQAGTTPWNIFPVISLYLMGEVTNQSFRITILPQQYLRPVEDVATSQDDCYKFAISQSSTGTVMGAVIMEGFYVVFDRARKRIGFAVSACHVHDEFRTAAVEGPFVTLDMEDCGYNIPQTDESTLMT

Row | Compound | IC50
1 | CC1CC2(C=CC(=O)N2c2cccc(F)c2)CCN1Cc1nc(-c2ccc(C#N)cc2)cs1 (racemic) [Example 26, Racemic 4-(2-{[(5R,7S),(5S,7R)-1-(3-fluorophenyl)-7-methyl-2-oxo-1,8-diazaspiro[4.5]dec-3-en-8-yl]methyl}-1,3-thiazol-4-yl)benzonitrile] | 10 to 100 µM
2 | CC(C)Oc1cccc(CN2CC[C@]3(C=CC(=O)N3c3cnn(C)c3)C[C@@H]2C)c1 [#113] | 10 to 100 µM
3 | CC[C@@H](C)Oc1cccc(CN2CC[C@]3(CCC(=O)N3c3cccc(F)c3)C[C@@H]2C)c1 [#216] | 1 to 10 µM
4 | CC(C)Oc1cccc(CN2CC[C@]3(C=CC(=O)N3c3cncc(C(F)(F)F)c3)C[C@@H]2C)c1 [#118] | 10 to 100 µM
5 | COc1ccc(Oc2cccc(CN3CCC4(C=CC(=O)N4c4cccc(F)c4)CC3C)c2)cc1 (racemic) [Example 3, Racemic (5R,7S),(5S,7R)-1-(3-fluorophenyl)-8-[3-(4-methoxyphenoxy)benzyl]-7-methyl-1,8-diazaspiro[4.5]dec-3-en-2-one] | 10 to 100 µM
6 | CC1CC2(C=CC(=O)N2c2cccc(F)c2)CCN1Cc1cccc(COc2cc(F)cc(F)c2)c1 (racemic) [Example 5, Racemic (5R,7S),(5S,7R)-8-{3-[(3,5-difluorophenoxy)methyl]benzyl}-1-(3-fluorophenyl)-7-methyl-1,8-diazaspiro[4.5]dec-3-en-2-one] | 10 to 100 µM
7 | CC1CC2(C=CC(=O)N2c2cccc(F)c2)CCN1Cc1nc(-c2cccc(C#N)c2)cs1 (racemic) [Example 27, Racemic 3-(2-{[(5R,7S),(5S,7R)-1-(3-fluorophenyl)-7-methyl-2-oxo-1,8-diazaspiro[4.5]dec-3-en-8-yl]methyl}-1,3-thiazol-4-yl)benzonitrite] | 10 to 100 µM
8 | CC1CC2(C=CC(=O)N2c2cccc(F)c2)CCN1Cc1cccc(O)n1 (racemic) [Example 6, Racemic (5R,7S),(5S,7R)-1-(3-fluorophenyl)-8-[(6-hydroxypyridin-2-yl)methyl]-7-methyl-1,8-diazaspiro[4.5]dec-3-en-2-one] | 100 to 300 µM
9 | CC(C)C(=O)c1cc(CN2CC[C@]3(C=CC(=O)N3c3cccc(F)c3)C[C@@H]2C)ccc1O [#204] | 1 to 10 µM
10 | CC(=O)Nc1ccc(CN2CCC3(C=CC(=O)N3c3cccc(F)c3)CC2C)cc1 (racemic) [Example 59, Racemic N-(4-{[(5R,7S),(5S,7R)-1-(3-fluorophenyl)-7-methyl-2-oxo-1,8-diazaspiro[4.5]-3-en 8-yl]methyl}phenyl)acetamide] | 1 to 10 µM
11 | COc1cc(CN2CCC3(C=CC(=O)N3c3cccc(F)c3)CC2C)ccc1O (racemic) [Example 12, Racemic (5R,7S),(5S,7R)-1-(3-fluorophenyl)-8-(4-hydroxy-3-methoxybenzyl)-7-methyl-1,8-diazaspiro[4.5]dec-3-en-2-one] | 1 to 10 µM
12 | CC1CC2(C=CC(=O)N2c2cccc(F)c2)CCN1Cc1cccc(C#N)c1 (racemic) [Example 7, Racemic 3-{[(5R,7S),(5S,7R)-1-(3-fluorophenyl)-7-methyl-2-oxo-1,8-diazaspiro[4.5]dec-3-en-8-yl]methyl}benzonitrile] | 10 to 100 µM
13 | CC1CC2(CCC(=O)N2c2cccc(F)c2)CCN1Cc1c[nH]c2ccc(Cl)cc12 (racemic) [Example 70, Racemic (5R,7S),(5S,7R)-8-[(5-chloro-1H-indol-3-yl)methyl]-1-(3-fluorophenyl)-7-methyl-1,8-diazaspiro[4.5]decan-2-one] | 10 to 100 µM
14 | CC1CC2(C=CC(=O)N2c2cccc(F)c2)CCN1Cc1nc(-c2cccc(Cl)c2)cs1 (racemic) [Example 71, Racemic (5R,7S),(5S,7R)-8-{[4-(3-chlorophenyl)-1,3-thiazol-2-yl]methyl}-1-(3-fluorophenyl)-7-methyl-1,8-diazaspiro[4.5]dec-3-en-2-one] | 10 to 100 µM
15 | CC1CC2(C=CC(=O)N2c2cccc(F)c2)CCN1Cc1c[nH]c(-c2ccccc2)n1 (racemic) [Example 83, Racemic (5R,7S),(5S,7R)-1-(3-fluorophenyl)-7-methyl-8-[(2-phenyl-1H-imidazol-4-yl)methyl]-1,8-diazaspiro[4.5]dec-3-en-2-one] | 100 to 300 µM
16 | CC1CC2(C=CC(=O)N2c2cccc(F)c2)CCN1Cc1ccc(F)c(Br)c1 (racemic) [Example 24, Racemic (5R,7S),(5S,7R)-8-(3-bromo-4-fluorobenzyl)-1-(3-fluorophenyl)-7-methyl-1,8-diazaspiro[4.5]dec-3-en-2-one] | 100 to 300 µM

Row | Compound | IC50
17 | CC(C)COc1cccc(CN2CCC3(C=CC(=O)N3c3cccc(F)c3)CC2C)c1 (racemic) [Example 18, Racemic (5R,7S),(5S,7R)-1-(3-fluorophenyl)-8-(3-isobutoxybenzyl)-7-rnethyl-1,8-diazaspiro[4.5]dec-3-en-2-one] | 10 to 100 µM
18 | CC(C)Cc1ocnc1CN1CC[C@]2(CCC(=O)N2c2cccc(F)c2)C[C@@H]1C [#213] | 10 to 100 µM
19 | Cc1ccc(Oc2cccc(CN3CCC4(C=CC(=O)N4c4cccc(F)c4)CC3C)c2)cc1 (racemic) [Example 2, Racemic (5R,7S),(5S,7R)-1-(3-fluorophenyl)-7-methyl-8-[3-(4-methylphenoxy)benzyl]-1,8-diazaspiro[4.5]dec-3-en-2-one] | 1 to 10 µM
20 | CC(C)Oc1cc(CN2CC[C@]3(CCC(=O)N3c3cccc(F)c3)C[C@@H]2C)ccc1O [Example 89, (5R,7S)˜1˜(3˜fluorophenyl)˜8˜(4˜hydroxy˜3˜isopropoxybenzyl)˜7˜methyl˜1,8˜diazaspiro[4.5]decan˜2˜one hydrochloride] | 0.001 to 1 µM
21 | Cc1cncc(N2C(=O)C=C[C@]23CCN(Cc2cccc(OC(C)C)c2)[C@@H](C)C3)c1 [#114] | 1 to 10 µM
22 | Cc1ccccc1-c1cccc(CN2CC[C@]3(CCC(=O)N3c3cccc(F)c3)C[C@@H]2C)c1 [Example 88, (5R,7S)˜1˜(3˜fluorophenyl)˜7˜methyl˜8˜[(2′˜methylbiphenyl˜3˜yl)methyl]˜1,8˜diazaspiro[4.5]decan˜2˜one hydrochloride] | 1 to 10 µM
23 | CC(C)Cc1ocnc1CN1CC[C@]2(C=CC(=O)N2c2cccc(F)c2)C[C@@H]1C [#200] | 1 to 10 µM
24 | Cc1nc(N2C(=O)C=C[C@]23CCN(Cc2cccc(OC(C)C)c2)[C@@H](C)C3)cs1 [#121] | 1 to 10 µM
25 | COC(=O)Nc1ccc(CN2CCC3(CCC(=O)N3c3cccc(F)c3)CC2C)cc1 (racemic) [Example 75, Racemic methyl (4-{[(5R,7S),(5S,7R)-1-(3-fluorophenyl)-7-methyl-2-oxo-1,8-diazaspiro[4.5]dec-8-yl]methyl}phenyl)carbamate] | 100 to 300 µM
26 | CC1CC2(CCC(=O)N2c2cccc(F)c2)CCN1Cc1ccc(O)c(C#N)c1 (racemic) [Example 41, Racemic (5R,7S),(5S,7R)-1(3-fluorophenyl)-7-methyl-2-oxo-1,8-diazaspiro[4.5]dec-8-yl]methyl}-2-hydroxybenzonitrile] | 10 to 100 µM
27 | Cc1cc(N2C(=O)C=C[C@]23CCN(Cc2cccc(OC(C)C)c2)[C@@H](C)C3)ccn1 [#110] | 10 to 100 µM
28 | CC1CC2(C=CC(=O)N2c2cccc(F)c2)CCN1Cc1cccc(OC2CCCC2)c1 (racemic) [Example 20, Racemic (5R,7S),(5S,7R)-8-[3-(cyclopentyloxy)benzyl]-1-(3-fluorophenyl)-7-methyl-1,8-diazaspiro[4.5]dec-3-en-2-one] | 10 to 100 µM
29 | COC1(OC)CC(c2cccc(CN3CCC4(C=CC(=O)N4c4cccc(F)c4)CC3C)c2)C1 (racemic) [Example 82, Racemic (5R,7S),(5S,7R)-8-[3-(3,3-dimethoxycyclobutyl)benzyl]-1-(3-fluorophenyl)-7-methyl-1,8-diazaspiro[4.5]dec-3-en-2-one] | 100 to 300 µM
30 | Cc1cccc(N2C(=O)C=C[C@]23CCN(Cc2ccc(O)c(OC(C)C)c2)[C@@H](C)C3)n1 [#135, (5R,7S)-8-(4-hydroxy-3-isopropoxybenzyl)-7-methyl-1-(6-methylpyridin-2-yl)-1,8-diazaspiro[4.5]dec-3-en-2-one] | 0.001 to 1 µM
31 | CC1CC2(CCC(=O)N2c2cccc(F)c2)CCN1Cc1cccc(-c2cccnc2)c1 (racemic) [Example 49, Racemic (5R,7S),(5S,7R)-1-(3-fluorophenyl)-7-methyl-8-(3-pyridin-3-ylbenzyl)-1,8-diazaspiro[4.5]decan-2-one] | 100 to 300 µM
32 | CC1CC2(C=CC(=O)N2c2cccc(F)c2)CCN1Cc1nc(-c2ccccc2Cl)cs1 (racemic) [Example 85, Racemic (5R,7S),(5S,7R)-8-{[4-(2-chlorophenyl)-1,3-thiazol-2-yl]methyl}-1-(3-fluorophenyl)-7-methyl-1,8-diazaspiro[4.5]dec-3-en-2-one] | 100 to 300 µM

same assay, conditions: Table 4; cell free, soluble human BACE, pH 4.5, 3 μM substrate; read-out: BACE Activity (Cell Free Assay IC50)

Row | Compound | IC50
33 | CC(C)Oc1cccc(CN2CC[C@]3(C=CC(=O)N3c3ccc(Cl)cn3)C[C@@H]2C)c1 [#104] | 10 to 100 µM
34 | CC(C)Oc1cccc(CN2CC[C@]3(C=CC(=O)N3c3ccc(F)cn3)C[C@@H]2C)c1 [#124] | 10 to 100 µM
